Data from US20130212738A1, “COMPOSITION FOR PHYTOCHELATIN TRANSPORT” (POSTECH ACADEMY-INDUSTRY FOUNDATION, priority 2010, published 2013).

Columns and labels:
[1] = tested on: A. thaliana mesophyll vacuoles; test: PC2 transport into intact vacuoles isolated from A. thaliana mesophyll protoplasts; type: biochemical
[2] = molecular target: T1, AtABCC1 (Arabidopsis thaliana, UniProt Q9C8G9); test: PC2 transport into microsomal vesicles of SM7 yeast expressing AtABCC1; type: biochemical, A. thaliana; conditions: vanadate 1 mM, NH4Cl 5 mM, PC 25 μM
T1 construct: expressed in transfected cells; host or cells: Saccharomyces cerevisiae SM7 (ycf1/yhl035c/yll015w/yll048c-deficient, expressing TaPCS1); microsomal vesicles

[3] = molecular target: T2, AtABCC2 (Arabidopsis thaliana, UniProt Q42093); type: biochemical, A. thaliana
T2 construct: expressed in transfected cells; host or cells: Saccharomyces cerevisiae SM7 (ycf1/yhl035c/yll015w/yll048c-deficient, expressing TaPCS1); microsomal vesicles

[4] = molecular target: PC2-As complex (phytochelatin PC2 in complex with As(III)); test: cell-based or functional assay
[5] = tested on: atabcc1 atabcc2 double knock-out A. thaliana; conditions: in vivo

Row | Compound | concentration of PC at half maximum of the absorption (transport) activities, 35S-PC2 uptake into yeast SM7 microsomal vesicles [4] [µM] | growth of the atabcc1 atabcc2 knock-out line compared with the wild type [5] | also measured
1 | [O]=[V]([O-])([O-])[O-] [vanadate] |  |  | residual transport activity (PC transport of isolated vacuoles) [1]: 25±7%; inhibition of absorption of PC2—As complex into the yeast vesicle [2]: remarkably reduced; inhibition of absorption of PC2—As complex into the yeast vesicle [3]: remarkably reduced
2 | AtABCC1 (from UniProt Q9C8G9 1-1622) | 350 |  | 
3 | AtABCC2 (from UniProt Q42093 1-1623) | 350 |  | 
4 | O=[As]([O-])([O-])O.[Na+].[Na+] [As(V), Na2HAsO4] |  | dramatically inhibited | 
5 | arsenite |  |  | transport of arsenic in a non-chelated form (ICP-MS) [3]: not transported
6 | [Cd] [Cd, cadmium] |  | dramatically inhibited | 
